Data from patent US20120309798A1, “Tumour Treatment Agents and Method” (Vivolux AB, priority 2009, published 2012).

tested on: solid and hematological patient tumor samples; assay: Relative effect on solid and hematological tumor samples (S/H ratio), FMCA; assay type: cell-based, human; settings: n=98 patient samples; FIG. 2b
Source text: (§1) Cell culture. Patient tumor samples (98) and preparations (4) of normal peripheral blood mononuclear cells (PBMC), detailed in Table 1, were used to determine the activity of VLX50 and, for comparison, six other cytotoxic drugs chosen to represent different mechanistic classes.
The tumor samples were obtained by bone marrow/peripheral blood sampling, routine surgery or diagnostic biopsy. Leukemic cells and PBMCs were isolated by 1.077 g ml-1 Ficoll-Paque centrifugation (Larsson et al., 1992). Tumor tissue from solid tumor samples was minced into small pieces and tumor cells were isolated by collagenase dispersion followed by Percoll density gradient centrifugation (Csoka et al., 1994). […] Cell viability was determined by trypan blue exclusion test and the proportion of tumor cells in the preparation was judged by inspection of May-Grunvald-Giemsa stained cytospin slides (FIG. 1a). […]
Fluorometric Microculture Cytotoxicity Assay. The Fluorometric Microculture Cytotoxicity Assay, FMCA, described in detail previously (Lindhagen et al., 2008), is based on measurement of fluorescence generated from hydrolysis of fluorescein diacetate (FDA) to fluorescein by cells with intact plasma membranes. […] Quality criteria for a successful assay included a mean coefficient of variation of less than 30% in the control and a fluorescence signal in control wells of more than 5 times the blank. […]

Row | Compound | S/H ratio (ratio between total response rates for solid and hematological samples)
1 | N.N.[Cl][Pt][Cl] [cisplatin, reference compound] | 1.2

tested on: cells from CLL and normal PBMC; assay: Tumor cell specificity: drug effect in CLL cells versus normal PBMC, FMCA; assay type: cell-based, human; settings: PBMC n=4, CLL n=9; t-test, p<0.05; FIG. 2c
Source text: as §1
The tumor samples were obtained by bone marrow/peripheral blood sampling, routine surgery or diagnostic biopsy. Leukemic cells and PBMCs were isolated by 1.077 g ml-1 Ficoll-Paque centrifugation (Larsson et al., 1992). Tumor tissue from solid tumor samples was minced into small pieces and tumor cells were isolated by collagenase dispersion followed by Percoll density gradient centrifugation (Csoka et al., 1994). The sampling of primary tumor cells was approved by the local ethics committee at Uppsala University Hospital. Cell viability was determined by trypan blue exclusion test and the proportion of tumor cells in the preparation was judged by inspection of May-Grunvald-Giemsa stained cytospin slides (FIG. 1a). All samples used in this study contained more than 70% tumor cells.
Fluorometric Microculture Cytotoxicity Assay. The Fluorometric Microculture Cytotoxicity Assay, FMCA, described in detail previously (Lindhagen et al., 2008), is based on measurement of fluorescence generated from hydrolysis of fluorescein diacetate (FDA) to fluorescein by cells with intact plasma membranes. Cells were seeded in the drug-prepared 384-well plates using the pipetting robot Precision 2000 (Bio-Tek Instruments Inc., Winooski, Vt.). The number of cells per well were 2500-5000. Two columns without drugs served as controls and one column with medium only served as blank. The plates were incubated for 72 h and then transferred to an integrated HTS SAIGAN Core System consisting of an ORCA robot (Beckman Coulter) with CO2 incubator (Cytomat 2C, Kendro, Sollentuna, Sweden), dispensor module (Multidrop 384, Titertek, Huntsville, Ala.), washer module (ELx 405, Bio-Tek Instruments Inc), delidding station, plate hotels, barcode reader (Beckman Coulter), liquid handler (Biomek 2000, Beckman Coulter) and a multipurpose reader (FLUOstar Optima, BMG Labtech GmbH, Offenburg, Germany) for automated FMCA. Quality criteria for a successful assay included a mean coefficient of variation of less than 30% in the control and a fluorescence signal in control wells of more than 5 times the blank.
Dose-response data were analyzed using calculated survival index values and the software program GraphPadPrism4 (GraphPad Software Inc., San Diego, Calif., USA). Data was processed using non-linear regression to a standard sigmoidal dose-response model to obtain IC50-values (inhibitory concentration 50%).
In FIG. 2a the response rates for VLX50 at 4 μM for the patient samples are listed according to diagnoses. […] Lung cancer, AML and CML had intermediate response rates. The relative effect of VLX50 and six standard cytotoxic drugs, in solid and hematological tumor samples, expressed as the S/H ratio, is shown in FIG. 2b. […] The results for the standard drugs are consistent with their main clinical use.

Row | Compound | Activity in CLL compared with PBMC
2 | CC[C@]1(O)C[C@H]2CN(CCc3c([nH]c4ccccc34)[C@@](C(=O)OC)(c3cc4c(cc3OC)N(C=O)[C@H]3[C@@](O)(C(=O)OC)[C@H](OC(C)=O)[C@]5(CC)C=CCN6CC[C@]43[C@@H]65)C2)C1 [vincristine] | significantly more active in CLL than in PBMC
3 | N.N.[Cl][Pt][Cl] [cisplatin, reference compound] | No difference
4 | Nc1ccn([C@@H]2O[C@H](CO)[C@@H](O)[C@@H]2O)c(=O)n1 [cytarabin] | significantly higher activity in PBMC than in CLL cells
5 | COc1cc([C@@H]2c3cc4c(cc3[C@@H](O[C@@H]3O[C@@H]5CO[C@@H](C)O[C@H]5[C@H](O)[C@H]3O)[C@H]3COC(=O)[C@H]23)OCO4)cc(OC)c1O [etoposide] | No difference
6 | COc1cccc2c1C(=O)c1c(O)c3c(c(O)c1C2=O)C[C@@](O)(C(=O)CO)C[C@@H]3O[C@H]1C[C@H](N)[C@H](O)[C@H](C)O1 [doxorubicin] | No difference
7 | N[C@@H](Cc1ccc(N(CCCl)CCCl)cc1)C(=O)O [melphalan] | significantly higher activity in PBMC than in CLL cells
